Assay results as given in patent US9890189B2, “Gemcitabine prodrugs and uses thereof” (BoYen Therapeutics, Inc., priority 2012, dated 2018).

How the values were obtained:
[1] = tested on: human HCT116 colorectal adenocarcinoma; test: Efficacy evaluation in HCT116 tumor cell xenograft model in nude mice; type: in vivo; settings: female nude mice, subcutaneous HCT116 tumors, Day 14 vs control group
Procedure: Method I: Efficacy Evaluation in HCT116 Tumor Cell Xenograft Model in Nude Mice Compounds 17, 18, 19 and 32 were evaluated for oral activity against human HCT116 colorectal adenocarcinoma in female nude mice. For the treatment groups, the above compounds were given perorally in 15% Tween 80 at a dose of 20 mg/kg once daily for 14 days. As a reference group, gemcitabine was administered intraperitoneally at 160 mg/kg once every three days for 4 doses. A control group received only the vehicle on the same peroral schedule as that of the treatment groups. Treatment began on Day 1 in all groups of female nude mice (n=8) bearing subcutaneous tumors of ˜180 mm^3 in size; the study duration was 14 days. Treatment results were presented as Tumor Growth Inhibition (TGI) as a percentage of average tumor size of untreated mice in the control group at Day 14.

[2] = In vitro metabolic conversion assay using human liver S9 fractions; type: in vitro ADME; settings: 10 μM, 37° C., 60 minutes, LC/MS/MS; for Formation of Gemcitabine: not quantitatively monitored
Procedure: Method H: In Vitro Metabolic Conversion Assay Using Human Liver S9 Fractions
A representative sampling of prodrug compounds was incubated with human liver S9 fractions (Life Technologies Corporation) at 10 μM in duplicates. Incubations were carried out at 37° C. in a shaker water bath. Samples were taken at 0 and 60 minutes. Negative controls (without S9 fractions) and positive controls (7-ethoxycoumarin and 7-hydroxycoumarin) were run concurrently with the test articles in duplicates. All samples were analyzed using LC/MS/MS; depletion of the parent compounds and the formation of gemcitabine were monitored, though the latter was not quantitatively monitored.
After incubation with human liver S9 fractions for 60 minutes, depletion of each test compound was observed along with formation of gemcitabine as a metabolite.

[3] = perorally in 15% Tween 80, 20 mg/kg once daily for 14 days

Row | SMILES | Tumor Growth Inhibition (TGI) [1, 3] | Tumor Growth Inhibition (TGI) ([1]; intraperitoneally 160 mg/kg once every three days for 4 doses) | % of Parent Remaining [2] | Formation of Gemcitabine [2]
1 | CCCCOC(=O)Nc1ccn([C@@H]2O[C@H](COC(=O)CCc3ccccc3)[C@@H](O)C2(F)F)c(=O)n1 [Compound 17, 4-(Butyloxycarbonylamino)-1-[(2R,4R,5R)-3,3-difluoro-4-hydroxy-5-(3-phenylpropanoyloxymethyl)oxolan-2-yl]-1,2-dihydropyrimidin-2-one] | 77.3% |  |  | 
2 | Nc1ccn([C@@H]2O[C@H](CO)[C@@H](O)C2(F)F)c(=O)n1 [gemcitabine] |  | 85.6% |  | 
3 | CCOC(=O)Nc1ccn([C@@H]2O[C@H](CO)[C@@H](OC(=O)CCc3ccccc3)C2(F)F)c(=O)n1 [Compound 58, 1-[(2R,4R,5R)-3,3-Difluoro-5-hydroxymethyl-4-(3-phenylpropanoyloxy)oxolan-2-yl]-1,2-dihydro-4-(ethoxycarbonylamino)-pyrimidin-2-one] |  |  | 0% | ✓
4 | Nc1ccn([C@@H]2O[C@H](COC(=O)CCCCC(=O)Nc3ccccc3)[C@@H](O)C2(F)F)c(=O)n1 [Compound 6, 4-Amino-1-[(2R,4R,5R)-5-((6-anilino-6-oxo-hexanoyloxy)methyl)-3,3-difluoro-4-hydroxy-oxolan-2-yl]-1,2-dihydropyrimidin-2-one] |  |  | 8% | ✓
5 | CCCCCOC(=O)Nc1ccn([C@@H]2O[C@H](COC(=O)CCc3cccnc3)[C@@H](O)C2(F)F)c(=O)n1 [Compound 32, 1-[(2R,4R,5R)-3,3-Difluoro-4-hydroxy-5-(3-(3-pyridyl)-propanoyloxymethyl)oxolan-2-yl]-1,2-dihydro-4-(pentyloxycarbonylamino)-pyrimidin-2-one] | 86.7% |  |  | 
6 | CCOC(=O)Nc1ccn([C@@H]2O[C@H](COC(=O)CCCCCCC(=O)Nc3ccccc3)[C@@H](O)C2(F)F)c(=O)n1 [Compound 14, 1-[(2R,4R,5R)-5-((8-Anilino-8-oxo-octanoyloxy)methyl)-3,3-difluoro-4-hydroxy-oxolan-2-yl]-1,2-dihydro-4-(ethoxycarbonylamino)-pyrimidin-2-one] |  |  | 0% | ✓
7 | CCCCOC(=O)Nc1ccn([C@@H]2O[C@H](COC(=O)CCc3cccnc3)[C@@H](O)C2(F)F)c(=O)n1 [Compound 18, 4-(Butyloxycarbonylamino)-1-[(2R,4R,5R)-3,3-difluoro-4-hydroxy-5-(3-(3-pyridyl)propanoyloxymethyl)oxolan-2-yl]-1,2-dihydro-pyrimidin-2-one] | 81.1% |  |  | 
8 | CCOC(=O)Nc1ccn([C@@H]2O[C@H](CO)[C@@H](OC(=O)CCCCCCC(=O)Nc3ccccc3)C2(F)F)c(=O)n1 [Compound 62, 1-[(2R,4R,5R)-4-(8-Anilino-8-oxo-octanoyloxy)-3,3-difluoro-5-hydroxymethyl-oxolan-2-yl]-1,2-dihydro-4-(ethoxycarbonylamino)-pyrimidin-2-one] |  |  | 2% | ✓
9 | Nc1ccn([C@@H]2O[C@H](COC(=O)CCc3ccccc3)[C@@H](O)C2(F)F)c(=O)n1 [Compound 3, 4-Amino-1-[(2R,4R,5R)-3,3-difluoro-4-hydroxy-5-(3-phenylpropanoyloxymethyl)oxolan-2-yl]-1,2-dihydropyrimidin-2-one] |  |  | 1% | ✓
10 | CCOC(=O)Nc1ccn([C@@H]2O[C@H](COC(=O)CCc3cccnc3)[C@@H](O)C2(F)F)c(=O)n1 [Compound 11, 1-[(2R,4R,5R)-3,3-Difluoro-4-hydroxy-5-(3-(3-pyridyl)-propanoyloxymethyl)oxolan-2-yl]-1,2-dihydro-4-(ethoxycarbonylamino)-pyrimidin-2-one] |  |  | 0% | ✓
11 | CCOC(=O)Nc1ccn([C@@H]2O[C@H](COC(=O)CCc3ccccc3)[C@@H](O)C2(F)F)c(=O)n1 [Compound 10, 1-[(2R,4R,5R)-3,3-Difluoro-4-hydroxy-5-(3-phenylpropanoyloxymethyl)oxolan-2-yl]-1,2-dihydro-4-(ethoxycarbonylamino)-pyrimidin-2-one] |  |  | 0% | ✓
12 | CCOC(=O)Nc1ccn([C@@H]2O[C@H](COC(=O)CCCCC(=O)Nc3ccccc3)[C@@H](O)C2(F)F)c(=O)n1 [Compound 13, 1-[(2R,4R,5R)-5-((6-Anilino-6-oxo-hexanoyloxy)methyl)-3,3-difluoro-4-hydroxy-oxolan-2-yl]-1,2-dihydro-4-(ethoxycarbonylamino)-pyrimidin-2-one] |  |  | 13% | ✓
13 | CCOC(=O)Nc1ccn([C@@H]2O[C@H](CO)[C@@H](OC(=O)CCc3cccnc3)C2(F)F)c(=O)n1 [Compound 59, 1-[(2R,4R,5R)-3,3-Difluoro-5-hydroxymethyl-4-(3-(3-pyridyl)propanoyloxy)oxolan-2-yl]-1,2-dihydro-4-(ethoxycarbonylamino)-pyrimidin-2-one] |  |  | 1% | ✓
14 | CCCCOC(=O)Nc1ccn([C@@H]2O[C@H](COC(=O)CCC(=O)Nc3ccccc3)[C@@H](O)C2(F)F)c(=O)n1 [Compound 19, 1-[(2R,4R,5R)-5-((4-Anilino-4-oxo-butanoyloxy)methyl)-3,3-difluoro-4-hydroxy-oxolan-2-yl]-4-(butyloxycarbonylamino)-1,2-dihydro-pyrimidin-2-one] | 75.8% |  |  | 
